ChEMBL document CHEMBL3046715, “In vivo evaluation of substituted 3-phenyl,7-methoxy-benzopyrans as modified estrogens” (2010)

How the values were obtained:
Type in all cases: functional
Rattus norvegicus [1] = assay: Estrogen agonistic activity in immature Rattus norvegicus Sprague-Dawley (rat) assessed as gain in uterine weight at 10 mg/kg, po qd for 3 days
Rattus norvegicus [2] = assay: Estrogen antagonistic activity in immature Rattus norvegicus Sprague-Dawley (rat) assessed as inhibition of ethynylestradiol-induced increase in uterine weight at 10 mg/kg, po qd for 3 days; conditions: 72 h
Rattus norvegicus [3] = assay: Estrogen agonistic activity in immature Rattus norvegicus Sprague-Dawley (rat) assessed as uterine weight at 0.02 mg/kg, po qd for 3 days (reference value: 14 +/- 1.3 to 22.23 +/- 1.2 mg)

Row | Structure (SMILES) | Activity (Rattus norvegicus [1]) [%] | inhibition in vivo at 10 mg/kg (Rattus norvegicus [2]) [%] | Activity (Rattus norvegicus [3]) [mg]
1 | CCC(O)(CC)CCCOc1ccc2c(c1)OCC(c1ccc(OC)cc1)C2 (configuration not stated) | 48 | 3 | –
2 | COc1ccc(C2COc3cc(OCCCC(C)(C)O)ccc3C2)cc1 (configuration not stated) | 31 | 6 | –
3 | C=C1CC[C@H](O)C/C1=C/C=C1\CCC[C@]2(C)[C@@H]([C@H](C)CCCC(C)C)CC[C@@H]12 [CHOLECALCIFEROL] | 82 | 39 | –
4 | COc1ccc2c(c1)OC(C)(C)C(c1ccccc1)C2c1ccc(OCCN2CCCC2)cc1 (configuration not stated) [ORMELOXIFENE] | 156 | 67 | –
5 | C#C[C@]1(O)CC[C@H]2[C@@H]3CCc4cc(O)ccc4[C@H]3CC[C@@]21C [ETHINYL ESTRADIOL] | 480 | – | 85
6 | O=C(c1ccc(OCCN2CCCCC2)cc1)c1c(-c2ccc(O)cc2)sc2cc(O)ccc12 [RALOXIFENE] | 90 | 57 | –
